Molecules are shown by their SMILES.

Assay [1] deals with T1, Ras farnesyl transferase (Rattus norvegicus, UniProt Q02293+Q04631).
T1 construct: endogenous in cells; host or cells: Rat2 fibroblasts transformed with C-Harvey-Ras or with the H-Ras/K-Ras polybasic-domain fusion
In words: In vivo (intracellular) Ras farnesylation inhibition in Rat2 cell line transformed with H-Ras fused with polybasic lysine domain of K-Ras. It is filed as cell-based. The note with it: Rat2 cells transformed with H-Ras/K-Ras polybasic domain fused protein; concentration inhibiting 50% of farnesyl binding; read-out: K-Ras CIC50. As to the method:
(§1) In the present experiment, Rat2 cell line which expresses C-Harvey-Ras protein having transforming activity and Rat2 cell line(Korean patent application No. 97-14409) which is transformed with fused protein of H-Ras substituted with polybasic lysine domain at C-terminus of K-Ras were used. The experiment was performed by the modified Declue's method(Declue. J. E. et al., Cancer Research, 51, 712, 1991) as follows.
(§2) 3×10^5 cells of transformed Rat2 fibroblast cell line were sprayed on 60 mm cell cultivation dish and cultivated for 48 hours in a cell incubator at 37° C. and after 50% or more of density was reached, it was treated with the test compounds. The compound according to the present invention dissolved in dimethylsulfoxide(DMSO) was used. 1% concentration of dimethylsulfoxide was used in both control and test groups. After 4 hours from the treatment with the compound, methionine labeled with 150 μCi of radioactive isotope [^35S] per 1 ml of medium was added and after cultivating for 20 hours, the cells were washed with physiological saline water. The cells were lysed using 1 ml of cold cell lysis buffer solution(50 mM of Sodium HEPES buffer solution containing 5 mM of magnesium chloride, 1 mM of DTT, 1% NP 40, 1 mM of EDTA, 1 mM of PMSF, 2 μM of leupeptin, 2 μM of pepstatin A and 2 μM of antipain) and the supernatant wherein the cells were lysed was obtained by high-velocity centrifugation of 12,000 g×5 minutes. The amount of radioisotope in the supernatant was measured and standardized to obtain a quantitative result in immunoprecipitation reaction and then, Y13-259, a monoclonal antiboby specifically binding to Ras protein(see: Furth, M. E. et al., J. Virol, 43, 294, 1982) was added and reacted for 15 hours at 4° C. Protein A(combined with goat anti-murine immunoglobulin antibody)-agarose suspension was added to the solution and reacted for 1 hour at 4° C. and then, to remove the unspecific binding product, immunoprecipitates were washed with a buffer solution (50 mM Tris chloride buffer solution containing 50 mM of sodium chloride, 0.5% of sodium dioxycholate, 0.5% of NP 40 and 0.1% of SDS). The precipitates were added to a buffer solution for electrophoresis and boiled and then, electrophoresis was performed using 13.5% of SDS polyacrylamide gel. After electrophoresis, the gel was fixed and dried. Then, the gel was exposed to X-ray film, developed and printed. From the result of the experiment, intensities of band of protein combined with or without farnesyl of Ras protein was measured, and the concentration of the test compound inhibiting 50% of farnesyl binding was defined as CIC50, an in vivo Ras farnesyl transferase inhibitory activity. IC50 means the data from Experimental 1 and CIC50 means the data from Experimental 2.

In assay [2] the target is T2, Ras farnesyl transferase (Homo sapiens, UniProt P49354+P49356).
T2 construct: made in house
In words: Ras farnesyl transferase enzyme inhibition, H-Ras substrate. It is filed as biochemical. To be noted: H-Ras substrate protein; recombinant farnesyl transferase; 30 minutes at 37° C. An excerpt:
(§3) In the present experiment, the improved Pompliano's method (see: Pompliano et al., Biochemistry, 31, 3800, 1992) was applied. Specifically, Ras farnesyl transferase produced by genetic recombination techniques was used, and fused protein of H-Ras(H-Ras-CVLS) substituted with polybasic lysine domain at C-terminus of K-Ras (see: Korean Patent Appln. No. 97-14409) was used as a substrate after it had been purified according to the known method(see, Chung et al., Biochimica et Biophysica Acta, 1129, 278, 1992).
(§4) The enzyme reaction was performed in 50 μl of 50 mM Sodium HEPES buffer solution containing 25 mM of potassium chloride, 25 mM of magnesium chloride, 10 mM of DTT and 50 μM of zinc chloride. 1.5 μM of Ras substrate protein, 0.15 μM of tritium-farnesylpyrophosphate and 4.5 nM of farnesyl transferase were used. More specifically, in the initial step, farnesyl transferase was added to the above buffer solution, reaction was maintained for 30 minutes at 37° C. and then the reaction was stopped by adding 1 ml of ethanol solution containing 1M HCl. The formed precipitates were adsorbed to GF/B filter using Hopper harvestor(Hopper #FH 225V) for filter-binding, washed with ethanol, and then radioactivity of the dried filter was measured using LKB β counter. Enzyme titer was measured in the unsaturated state of substrate where the concentration of Ras substrate protein and farnesyl transferase have quantitative relationship. The compound according to the present invention dissolved in dimethyl sulfoxide(DMSO) was added to the reaction solution in an amount of less than 5% of the total reaction solution, and then the enzyme inhibitory activity thereof was measured. The enzyme inhibitory activity was represented by percentage of the amount of farnesyl incorporated into the Ras substrate protein in the presence of the test compound to that in the absence of the test compound. IC50 of the test compound was defined as the concentration at which 50% of the enzyme activity was inhibited. To evaluate the selective enzyme inhibitory activity of the compound according to the present invention, inhibitory activity on geranylgeranyl transferase was measured. Geranylgeranyl transferase was purified from bovine brain according to the modified Schaber's method(Schaber et al., J. Biol. Chem. 265, 14701, 1990), and substantially the same experimental procedure as that for farnesyl transferase was performed on geranylgeranyl pyrophosphate and Ras-CVIL substrate protein.

Assay [3] has as its target T1, Ras farnesyl transferase. As to the kind of experiment: In vivo (intracellular) Ras farnesylation inhibition in Rat2 cell line expressing C-Harvey-Ras. Format: cell-based. The note with it: Rat2 cells expressing C-Harvey-Ras; concentration inhibiting 50% of farnesyl binding; read-out: H-Ras CIC50. As to the method:
as §1, §2

For assay [4], the target named is T2, Ras farnesyl transferase. In words: Ras farnesyl transferase enzyme inhibition, K-Ras substrate (H-Ras fused with polybasic lysine domain of K-Ras). Format: biochemical. To be noted: K-Ras substrate (fused protein of H-Ras with polybasic lysine domain of K-Ras); recombinant farnesyl transferase.
Excerpt: as §3, §4

For the molecule `O=C(c1cn(Cc2cncn2C2CCN(Cc3ccccc3)CC2)cc1-c1cccc2ccccc12)N1CCOCC1` [Example 14, 1-[1-(1-benzylpiperidin-4-yl)-1H-imidazol-5-yl]methyl-3-(morpholin-4-yl)carbonyl-4-(naphthalen-1-yl)-1H-pyrrole], the IC50 at Ras farnesyl transferase [1] was 10000 to 50000 nM; at Ras farnesyl transferase [2] it was below 10 nM; on Ras farnesyl transferase [3] it was below 25 nM; on Ras farnesyl transferase [4], below 10 nM.

On to `Cc1ncc(Cn2cc(C(=O)N3CCN(C)CC3)c(-c3cccc4ccccc34)c2)n1Cc1ccc2c(c1)OCO2` [Example 15, 1-[2-methyl-1-(3,4-methylenedioxybenzyl)-1H-imidazol-5-ylmethyl]-3-(4-methylpiperazin-1-yl)carbonyl-4-(naphthalen-1-yl)-1H-pyrrole], for which the IC50 on Ras farnesyl transferase [1] was above 10000 nM; at Ras farnesyl transferase [2], below 6 nM; on Ras farnesyl transferase [3] it was above 25 nM; on Ras farnesyl transferase [4], below 13 nM.

`Cc1ncn(Cc2ccc3c(c2)OCO3)c1Cn1cc(C(=O)N2CCN(C)CC2)c(-c2cccc3ccccc23)c1` [Example 16, 1-[4-methyl-1-(3,4-methylenedioxybenzyl)-1H-imidazol-5-ylmethyl]-3-(4-methylpiperazin-1-yl)carbonyl-4-(naphthalen-1-yl)-1H-pyrrole]: the IC50 at Ras farnesyl transferase [1] is above 10000 nM; on Ras farnesyl transferase [2] it was below 1.5 nM; at Ras farnesyl transferase [3] it was above 25 nM; on Ras farnesyl transferase [4], below 2.3 nM.

Regarding `CN1CCN(C(=O)c2cn(Cc3cnc(N)n3Cc3ccc4c(c3)OCO4)cc2-c2cccc3ccccc23)CC1` [Example 17, 1-[2-amino-1-(3,4-methylenedioxybenzyl)-1H-imidazol-5-ylmethyl]-3-(4-methylpiperazin-1-yl)carbonyl-4-(naphthalen-1-yl)-1H-pyrrole], the IC50 was above 10000 nM on Ras farnesyl transferase [1], below 1.8 nM at Ras farnesyl transferase [2], above 25 nM on Ras farnesyl transferase [3] and below 6.4 nM at Ras farnesyl transferase [4].

As for `CSc1ncc(Cn2cc(C(=O)N3CCN(C)CC3)c(-c3cccc4ccccc34)c2)n1Cc1ccc2c(c1)OCO2` [Example 18, 1-[1-(3,4-methylenedioxybenzyl)-2-methylthio-1H-imidazol-5-ylmethyl]-3-(4-methylpiperazin-1-yl)carbonyl-4-(naphthalen-1-yl)-1H-pyrrole], the IC50 at Ras farnesyl transferase [1] is above 10000 nM; on Ras farnesyl transferase [2], below 3.5 nM; on Ras farnesyl transferase [3] it was above 25 nM; on Ras farnesyl transferase [4], below 12 nM.

Consider `CSc1c(C(=O)N2CCN(C)CC2)c(-c2cccc3ccccc23)cn1Cc1cncn1Cc1ccc2c(c1)OCO2` [Example 19, 1-[1-(3,4-methylenedioxybenzyl)-1H-imidazol-5-ylmethyl]-3-(4-methylpiperazin-1-yl)carbonyl-2-methylthio-4-(naphthalen-1-yl)-1H-pyrrole], for which the IC50 at Ras farnesyl transferase [1] is above 10000 nM; on Ras farnesyl transferase [2] it was below 0.95 nM; at Ras farnesyl transferase [3], below 12.5 nM; on Ras farnesyl transferase [4], below 2 nM.

Regarding `CN1CCN(C(=O)c2cn(Cc3c(I)ncn3Cc3ccc4c(c3)OCO4)cc2-c2cccc3ccccc23)CC1` [Example 20, 1-[4-iodo-1-(3,4-methylenedioxybenzyl)-1H-imidazol-5-ylmethyl]-3-(4-methylpiperazin-1-yl)carbonyl-4-(naphthalen-1-yl)-1H-pyrrole], the IC50 was above 10000 nM at Ras farnesyl transferase [1], below 3.5 nM on Ras farnesyl transferase [2], above 25 nM at Ras farnesyl transferase [3] and below 18 nM at Ras farnesyl transferase [4].

`CN1CCN(C(=O)c2cn(Cc3c([N+](=O)[O-])ncn3Cc3ccc4c(c3)OCO4)cc2-c2cccc3ccccc23)CC1` [Example 21, 1-[1-(3,4-methylenedioxybenzyl)-4-nitro-1H-imidazol-5-ylmethyl]-3-(4-methylpiperazin-1-yl)carbonyl-4-(naphthalen-1-yl)-1H-pyrrole]: the IC50 at Ras farnesyl transferase [1] was above 10000 nM; on Ras farnesyl transferase [2], above 30 nM; on Ras farnesyl transferase [3], above 30 nM; on Ras farnesyl transferase [4], above 30 nM.

Turning to `CN1CCN(C(=O)c2cn(Cc3c(N)ncn3Cc3ccc4c(c3)OCO4)cc2-c2cccc3ccccc23)CC1` [Example 22, 1-[4-amino-1-(3,4-methylenedioxybenzyl)-1H-imidazol-5-ylmethyl]-3-(4-methylpiperazin-1-yl)carbonyl-4-(naphthalen-1-yl)-1H-pyrrole], the IC50 at Ras farnesyl transferase [1] was above 10000 nM; on Ras farnesyl transferase [2], below 2.7 nM; at Ras farnesyl transferase [3] it was above 25 nM; on Ras farnesyl transferase [4], below 30 nM.

As for `CON1CCN(C(=O)c2cn(Cc3c(C)ncn3Cc3ccc4c(c3)OCO4)cc2-c2cccc3ccccc23)CC1` [Example 23, 3-(4-methoxypiperazin-1-yl)carbonyl-1-[4-methyl-1-(3,4-methylenedioxybenzyl)-1H-imidazol-5-ylmethyl]-4-(naphthalen-1-yl)-1H-pyrrole], the IC50 at Ras farnesyl transferase [1] is above 10000 nM; at Ras farnesyl transferase [2], below 22 nM; at Ras farnesyl transferase [3] it was above 30 nM; at Ras farnesyl transferase [4], above 30 nM.

For the molecule `Cc1c(C(=O)N2CCN(C)CC2)c(-c2cccc3ccccc23)cn1Cc1cncn1Cc1ccc2c(c1)OCO2` [Example 24, 2-methyl-1-[1-(3,4-methylenedioxybenzyl)-1H-imidazol-5-ylmethyl]-3-(4-methylpiperazin-1-yl)carbonyl-4-(naphthalen-1-yl)-1H-pyrrole], the IC50 at Ras farnesyl transferase [1] was below 10000 nM; on Ras farnesyl transferase [2] it was below 4.45 nM; on Ras farnesyl transferase [3], above 25 nM; at Ras farnesyl transferase [4], below 7 nM.

As for `CCSc1c(C(=O)N2CCN(C)CC2)c(-c2cccc3ccccc23)cn1Cc1cncn1Cc1ccc2c(c1)OCO2` [Example 25, 2-ethylthio-1-[1-(3,4-methylenedioxybenzyl)-1H-imidazol-5-ylmethyl]-3-(4-methylpiperazin-1-yl)carbonyl-4-(naphthalen-1-yl)-1H-pyrrole], the IC50 on Ras farnesyl transferase [1] was below 5000 nM; on Ras farnesyl transferase [2], below 2 nM; at Ras farnesyl transferase [3] it was below 10 nM; on Ras farnesyl transferase [4], below 6 nM.

Turning to `COc1ccccc1CCn1c(Cn2cc(C(=O)N3CCN(C)CC3)c(-c3cccc4ccccc34)c2)cnc1C` [Example 26, 1-[1-(2-methoxyphenethyl)-2-methyl-1H-imidazol-5-ylmethyl]-3-(4-methylpiperazin-1-yl)carbonyl-4-(naphthalen-1-yl)-1H-pyrrole], the IC50 is above 10000 nM at Ras farnesyl transferase [1], below 2 nM at Ras farnesyl transferase [2], below 25 nM on Ras farnesyl transferase [3] and below 6.5 nM on Ras farnesyl transferase [4].

These data come from US6511978B1, “Pyrrole derivatives useful for farnesyl transferase inhibitors and their preparations” (LG Life Sciences, Ltd., priority 1999, dated 2003).
